From the CheMixHub ionic liquid set

Experiment: xn = mol fraction of the nth substance listed

C[N+]1(CCOCC[N+]2(C)CCCC2)CCCC1.N#C[N-]C#N.N#C[N-]C#N + CC[n+]1ccn(C)c1.N#C[N-]C#N + O=S(=O)([N-]S(=O)(=O)C(F)(F)F)C(F)(F)F.[Li+]
100 kPa, x1 = 0.2938, x2 = 0.621
Settings | electrical conductivity [S/m]
298 K | 0.622
303 K | 0.76
313 K | 1.04
323 K | 1.38
333 K | 1.76
343 K | 2.24

c1ccsc1 + CCCC[n+]1ccn(C)c1.O=S(=O)([N-]S(=O)(=O)C(F)(F)F)C(F)(F)F
viscosity [mPa·s], 100 kPa
Settings | x1 = 0.089 | x1 = 0.276 | x1 = 0.561 | x1 = 1
298.15 K | – | – | 14.73 | 0.655
308.15 K | 29 | 18.8 | – | –

CCCCn1cc[n+](C)c1C.C[C@@H](O)[C@H](N)C(=O)[O-] + O
100 kPa
Settings | viscosity [mPa·s]
288.15 K, x1 = 0.4927 | 331
293.15 K, x1 = 0.2985 | 102
293.15 K, x1 = 0.7003 | 447
298.15 K, x1 = 0.7003 | 307
298.15 K, x1 = 0.8001 | 402
308.15 K, x1 = 0.1919 | 24.8
308.15 K, x1 = 0.4004 | 63
308.15 K, x1 = 0.599 | 122
308.15 K, x1 = 0.8001 | 199
313.15 K, x1 = 0.2985 | 26.1
313.15 K, x1 = 0.599 | 78
318.15 K, x1 = 0.2985 | 21.5
318.15 K, x1 = 0.4004 | 33.1
318.15 K, x1 = 0.4927 | 45.9
318.15 K, x1 = 0.7003 | 77
318.15 K, x1 = 0.8001 | 92

C=C[n+]1ccn(CC(N)=O)c1.O=S(=O)([N-]S(=O)(=O)C(F)(F)F)C(F)(F)F + CC#N
100 kPa
Settings | electrical conductivity [S/m] | viscosity [mPa·s]
298.15 K, x1 = 0.01 | 1.29 | 0.67
303.15 K, x1 = 0.07 | 3.51 | –
303.15 K, x1 = 0.1 | 3.28 | 10
303.15 K, x1 = 0.2 | 1.77 | –
303.15 K, x1 = 0.201 | – | 69
303.15 K, x1 = 0.393 | 0.48 | –
303.15 K, x1 = 0.4011 | – | 680
308.15 K, x1 = 0.01 | 1.4 | 0.61
308.15 K, x1 = 0.02 | 2.78 | –
308.15 K, x1 = 0.201 | – | 60
308.15 K, x1 = 1 | 0.03 | –
313.15 K, x1 = 0.1 | 3.8 | 8.2
313.15 K, x1 = 0.4011 | – | 424
318.15 K, x1 = 0.01 | 1.53 | 0.55
318.15 K, x1 = 0.047 | 3.87 | –
318.15 K, x1 = 0.2 | 2.38 | –
323.15 K, x1 = 0.08 | 4.39 | –
323.15 K, x1 = 0.2 | 2.58 | –
323.15 K, x1 = 0.3026 | – | 119
323.15 K, x1 = 1 | 0.1 | –
328.15 K, x1 = 0.07 | 4.58 | –
328.15 K, x1 = 0.1 | 4.49 | 6.6
328.15 K, x1 = 0.4011 | – | 233
328.15 K, x1 = 1 | 0.14 | –
333.15 K, x1 = 0.047 | 4.34 | –
333.15 K, x1 = 0.201 | – | 32.7

c1ccsc1 + N#C[C-](C#N)C#N.OCC[n+]1ccccc1
101 kPa, x2 = 0
Settings | viscosity [mPa·s]
303.15 K | 0.58
333.15 K | 0.42
348.15 K | 0.364

CCCC[P+](CCCC)(CCCC)CCCC.F[B-](F)(F)F + CC#N + C1CCOC1
298.15 K, 100 kPa
Settings | viscosity [mPa·s]
x1 = 0.0005747, x2 = 0.84 | 0.377
x1 = 0.0006326, x2 = 0.6368 | 0.408
x1 = 0.000709, x2 = 0.369 | 0.437
x1 = 0.0008641, x2 = 0.8398 | 0.381
x1 = 0.0009513, x2 = 0.6366 | 0.412
x1 = 0.001066, x2 = 0.3689 | 0.442
x1 = 0.001153, x2 = 0.8395 | 0.384
x1 = 0.00127, x2 = 0.6364 | 0.416
x1 = 0.001429, x2 = 0.3688 | 0.447
x1 = 0.001442, x2 = 0.8393 | 0.388
x1 = 0.001588, x2 = 0.6362 | 0.42
x1 = 0.001736, x2 = 0.839 | 0.392
x1 = 0.001786, x2 = 0.3686 | 0.451
x1 = 0.001911, x2 = 0.636 | 0.424
x1 = 0.002029, x2 = 0.8388 | 0.396
x1 = 0.002142, x2 = 0.3685 | 0.456
x1 = 0.002229, x2 = 0.6358 | 0.429
x1 = 0.002504, x2 = 0.3684 | 0.461
